Molecular target: Galectin-7 (Homo sapiens, UniProt P47929)
Assay: Binding affinity to human Gal-7 assessed as dissociation constant by fluorescence polarization assay

Chain of Galectin-7 (P47929 whole entry): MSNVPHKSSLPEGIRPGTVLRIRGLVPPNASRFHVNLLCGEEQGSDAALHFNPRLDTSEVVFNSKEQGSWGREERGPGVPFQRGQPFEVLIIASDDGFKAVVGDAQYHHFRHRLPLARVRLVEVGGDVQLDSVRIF

Structure (SMILES)	Kd
CS[C@@H]1O[C@H](CO)[C@H](O)[C@H](NC(=O)c2ccc(C)cc2)[C@H]1OP(=O)(O)OCc1ccccc1	450 µM
COP(=O)(O)O[C@@H]1[C@@H](NC(=O)c2ccc(C)cc2)[C@@H](O)[C@@H](CO)O[C@H]1SC	240 µM

Source: ChEMBL document CHEMBL5104122, “Synthesis and application of phosphorylated saccharides in researching carbohydrate-based drugs” (Bioorg Med Chem, 2022)
